SMILES strings stand for the structures.

Take `C[C@H]1C=CC2=C[C@@H](O)C[C@H](OC(=O)C(C)(C)C)[C@@H]2[C@H]1CC[C@@H]1C[C@@H](O)CC(=O)O1`: the melting point was in the range of 132 to 133 °C. Compound `Nc1nc(SC2C=CCCC2)c2ncn(C3C=CC(CO)C3)c2n1` (configuration not stated) gave a melting point of 138 to 140 °C. To `OCc1csc(Nc2ccc(Oc3ccccc3)cn2)n1` belongs 130 to 131 °C; to `CCOC(=O)CNC(=O)CN(C(=O)c1ccc(Cl)cc1)c1c(C)cccc1C`, 127 to 129 °C. `CCCc1c(OCC(O)COc2ccc3c(=O)cc(CCC(=O)O)oc3c2CCC)ccc(C(C)=O)c1O` (configuration not stated) came in with a melting point of 79 to 80 °C. The figure for `CCCCCCCCNC(=O)Nc1ccccc1C(=O)NC1CCN(Cc2ccccc2)CC1` is 129 °C; for `CC12CCC(=O)C=C1N(C(C)(C)C)CC1C2CCC2(CC(=O)O)C(C(=O)O)CCC12` (configuration not stated) it is 215 to 216 °C; for `Cc1nc(-c2ccc(OCCCCCOc3ccc(C(=N)NO)cc3)cc2)c(C(C)C)s1` it is 97 °C. As to `CCn1ncc2c(NCC3CCCCC3)c3ccccc3nc21`, the melting point was in the range of 161 to 163 °C.

The compound `CC(C)(C)NS(=O)(=O)c1cc2c(s1)S(=O)(=O)NCC2O` (configuration not stated) returned a melting point of 144 to 147 °C. As to `COC(=O)c1ccccc1S(=O)(=O)NC(=O)Nc1nc(C)c2ccccc2n1`, the melting point lay in the range of 182 to 183 °C. `CN1CCc2cc[nH]c2C(c2ccccc2)C1` (configuration not stated) yielded a melting point of 90 to 91 °C. As for `Cc1cc(F)ccc1-c1c(O)c(C)c(-c2ccc(F)cc2)oc1=O`, the melting point was 191 to 193 °C. For the compound `OCC1OC(SCC=Cc2ccccc2)C(O)C(O)C1O` (configuration not stated), the melting point was 145 to 146 °C.

For the compound `CC(C)(N)c1ccc(-c2nc(Nc3cccc(F)c3)ncc2C#N)cc1`, the melting point amounted to 209 °C. As for `CC1(C)Oc2ccc(C#N)cc2[C@@H](n2cnccc2=O)[C@@H]1O` (relative stereo), the melting point was 202 to 203 °C. The compound `C=CC(=O)NCc1ccc(CBr)cc1` yielded a melting point of 167 °C. Regarding `CN(C)C=C(C=O)c1cccc(C(F)(F)F)c1`, the melting point fell in the range of 128 to 132 °C. Consider `OCC1=CC=C(CO)SS1`, for which the melting point fell in the range of 64 to 66 °C. The figure for `CC(=O)OCCOCCN1CCC(CNC(=O)[C@@H]2CCCN2S(=O)(=O)c2ccc(Cl)c(COc3cccc4c(-n5cncn5)cc(C)nc34)c2Cl)CC1` is 86 °C; for `COC(=O)C1=C(C)NC(C)=C(C(=O)OC)C1c1ccccc1NC(C)=O` it is 284 to 285 °C; for `CCOC(=O)C1CCc2sc3ccc(C#N)cc3c2C1` (configuration not stated) it is 121 to 122 °C. In turn, `O=C(O)C(O)CCCCCc1ccc(Cl)cc1` (configuration not stated) registered a melting point of 78 to 81 °C. Compound `CC(=O)N1CC(Cc2ccccc2)OC1=O` (configuration not stated) returned a melting point of 90 °C. To `Cc1cccc(Nc2nc(Cl)nc(Cl)n2)c1C` belongs 186 to 188 °C; to `CCCCc1[nH]c(Cc2ccccc2)nc(=O)c1Cc1ccc(-c2ccccc2C(=O)O)cc1`, 219 °C.

Compound `COC(=O)COCc1c(OC)ccc(OC)c1C=O` returned a melting point of 177 to 179 °C. On to `CCc1nc(C)cn1C(=O)c1c(Cl)cccc1[N+](=O)[O-]`, for which the melting point lay within 116 to 118 °C. For the compound `O=C(O)CC1(c2ccc(Cl)c(Cl)c2)CNC(=O)C1` (configuration not stated), the melting point lay within 191 to 195 °C. The figure for `CON=C(c1cc(C)on1)c1ccccc1COc1ncc(Cl)cc1C(F)(F)F` is 120 to 121 °C. As to `CCOC(=O)c1cn2c(n1)CN(C(C)=O)CC2`, the melting point is 97 °C. Turning to `CCc1nc(N)nc(N)c1-c1ccc(N(Cc2ccccc2)Cc2ccccc2)c([N+](=O)[O-])c1`, the melting point was 197 to 199 °C.

`CN(CCCCCCO)c1ccc(C=Cc2ccc(S(C)(=O)=O)cc2)cc1` registered a melting point of 113 to 115 °C.

`CCCc1nc2c(N)nc3cccnc3c2n1CC1(O)CC1` had a melting point of 199 to 200 °C. The compound `CC1=C(CCN(O)C(N)=O)/C(=C/c2ccc(S(C)(=O)=O)cc2)c2ccccc21` returned a melting point of 140 to 142 °C. To `CS(=O)(=O)c1ccc(-c2cccn2-c2ccc(Cl)cc2)cc1` belongs 184 to 188 °C; to `O=C(O)CCc1ccc(CCNC(=O)C2Cc3ccccc3N2S(=O)(=O)c2ccc(-c3cccc(C(F)(F)F)c3)cc2)cc1` (configuration not stated), 86 °C. For the compound `CCCCCCCCCCCCCCCCn1nnc(C(C(=O)Nc2c(OC)cc(OC)cc2OC)c2ccccc2)n1` (configuration not stated), the melting point is 134 to 135 °C. In the case of `COc1ccccc1N1CCN(CCCc2ccc(C3CCC(=O)N3)cc2)CC1` (configuration not stated), the melting point is 109 to 111 °C.

The compound `CCCCCCCCCCCCCCCCOCCSCCOC(=O)NCc1ccccn1` displayed a melting point of 55 to 56 °C. Compound `Cc1ccc(NC(=O)c2ccc3oc(-c4c(C)cc(OCC(=O)N(C)C)cc4C)nc3c2)cc1C` showed a melting point of 207 to 209 °C. With `O=C(Oc1ccc(Cl)c2c(=O)c3ccccc3sc12)c1ccccc1`, the melting point is 177 to 178 °C.

`CCOC(=O)c1cn(-c2nnnn2C)c2nc(Cl)c(F)cc2c1=O` gave a melting point of 210 to 215 °C. As to `Cc1cc(C2CN(C(=O)Nc3ccc(OC(F)(F)F)cc3)N=C2c2ccccc2)on1` (configuration not stated), the melting point fell in the range of 195 to 197 °C. The figure for `O=C(O)[C@@]12C[C@@H](c3ccccc31)c1ccc(Cl)cc12` is 172 to 173 °C; for `O=c1c2cc(F)c(F)cc2n(CC2CC2)c(=O)n1OCc1ccccc1` it is 121 to 123 °C; for `CCCOc1ccccc1C(=O)Nc1ccccc1C(N)=O` it is 149 to 150 °C. `O=C(Nc1ccc(Cl)cn1)c1cn2nc(N3CCN(C(=O)c4ccccc4C(F)(F)F)CC3)ccc2n1` returned a melting point of 265 to 268 °C.

For the compound `CCCCCCCCN1C(=O)NC2(CC(C)(CC)NC(C)(CC)C2C)C1=O` (configuration not stated), the melting point fell in the range of 65 to 67 °C. The compound `CCOP(=O)(OCC)C(F)(F)c1ccc(CN(Cc2ccc(C(F)(F)P(=O)(OCC)OCC)cc2)C(=O)c2ccccc2)cc1` returned a melting point of 87 to 89 °C. In turn, `CC(CCCc1ccc(F)cc1)c1cc(O)c2c3c(c(=O)oc2c1)CCC3` (configuration not stated) showed a melting point of 133 to 135 °C. Consider `CCOC(=O)/C(N)=C/C(=O)/C=C/c1ccc(Cl)cc1`, for which the melting point lay in the range of 105 to 107 °C.

The compound `COc1cc(Oc2cccc(C(F)(F)F)c2)nc(C(=O)NC(OC)C(F)(F)F)c1` (configuration not stated) had a melting point of 102 to 104 °C. For the compound `BrC(Br)=Cc1ccccc1NCc1ccccc1`, the melting point was in the range of 93 to 95 °C.

Compound `CNc1nc(SC)ncc1C` came in with a melting point of 134 °C. The compound `COc1ccc(-n2ccc3ccccc32)cc1` had a melting point of 52 to 54 °C. With `Cc1ccc(OCC2=NCCN2)c(C)c1NS(C)(=O)=O`, the melting point lay within 216 to 217 °C. To `N#CSc1cc(-c2ccccc2)c(O)c(-c2ccccc2)c1` belongs 104 to 106 °C. To `CCCn1c(=O)c2[nH]c(-c3ccsc3)nc2n(CCC)c1=O` belongs above 250 °C; to `CCOC(=O)c1cc(NC(=O)c2ccc(Cl)cc2Cl)ccc1Oc1cncc(Cl)c1`, 125 to 127 °C; to `CC(CCCc1ccccc1)Oc1cc(O)c2c(c1)CC(C)(C)CC2C(N)=O` (configuration not stated), 155 to 157 °C.

The compound `Cc1cccc(Nn2cnc(C)c2-c2ccccc2)c1` returned a melting point of 159 °C. Regarding `CCCCCc1nc2c(N)nc3c(c2n1CCCCNS(C)(=O)=O)CCCC3`, the melting point lay in the range of 167 to 168 °C.

`CCCc1c(C(=O)C(C)C)c2ccc(C(N)=O)cc2n1Cc1ccccc1C(N)=O` had a melting point of 273 to 274 °C. `Fc1cc2c(Nc3ccc(F)c(Br)c3)ncnc2cn1` registered a melting point of 269 to 270 °C.

`N#CC1=C(c2ccc3ccccc3c2)Nc2n[nH]cc2C1c1cccc2nonc12` (configuration not stated) yielded a melting point of 228 °C. Take `CCOc1ccc(CC(=O)Nc2ccc(S(=O)(=O)Nc3ccccc3C(=O)O)cc2)cc1`: the melting point is 241 to 242 °C.

Consider `OC(Cn1cncn1)(c1ccc(Cl)cc1)C1(C2CC2)CC1` (configuration not stated), for which the melting point lay within 110 to 112 °C. Regarding `C=CCc1cc2c(cc1O)CCC(=O)N2CC=C(C)C`, the melting point fell in the range of 148 to 150 °C. `COC(=O)NNC(=S)CC(C)(C)C` gave a melting point of 72.5 to 73 °C. In the case of `O=C1NC(=O)C(CCOc2ccccc2)S1` (configuration not stated), the melting point lay in the range of 81 to 83 °C. The compound `CCOC(=O)C1=C(C)N2CCNC2=C(C(=O)OCC)C1c1cccs1` (configuration not stated) yielded a melting point of 134 °C.

In turn, `CC1=CC(=C(CC(C)CC(C)(C)C)c2cc(C)cc(C)c2OCc2ccccc2)C(O)C(C)=C1` (configuration not stated) had a melting point of 125 to 126 °C. To `CCc1c2nc(-c3cc(S(C)(=O)=O)ccc3OCC(C)C)[nH]c(=O)c2nn1Cc1cccnn1` belongs 244 to 247 °C; to `CC(=O)c1cc2c(s1)CCC1CC(=O)N(c3ccc(Cl)cc3)N=C21` (configuration not stated), 155 to 157 °C; to `C=CCN(CC)C(=O)n1cnc(S(=O)CC)n1` (configuration not stated), 59 to 61 °C. The figure for `COc1ccc(-c2nc(NC(C)=O)n3nc(-c4ccco4)nc3n2)cc1` is 243 to 246 °C. As for `CCC[C@@H]([C@@H](CC(C)C)C(=O)N[C@@H](CCCNCN=N[N+](=O)[O-])C(=O)Nc1nccs1)N(O)C=O`, the melting point lay within 130 to 136 °C. For the compound `COC(=O)C1C=CCN2C(=O)C(C)(CCOS(C)(=O)=O)C(=O)N12` (configuration not stated), the melting point fell in the range of 104 to 105 °C. For `CCCN(c1nc(-c2ccc(OC)cc2Cl)c(C)s1)c1cc(C(=O)O)ccc1OC`, the melting point stood at 109 °C. As for `CC1(C)CCc2c(N3CCCC3)nc3sc4c(NCc5ccco5)ncnc4c3c2C1`, the melting point was 201 to 202 °C. For `Cc1ccc(S(=O)(=O)OCCCCn2c3c(c4ccccc4c2=O)C(=O)c2ccccc2-3)cc1`, the melting point fell in the range of 160 to 163 °C. `CC(C)n1nc(-c2sc(NC(=O)c3ccc(CNCCN4CCCCC4)cc3)nc2-c2ccccc2)ccc1=O` showed a melting point of 134 to 136 °C.

As to `CN(C)C(=O)C(CCO)C1CCc2c1[nH]c1ccccc21` (configuration not stated), the melting point lay in the range of 118 to 120 °C.

As to `CC#CCNC(=C[N+](=O)[O-])NCCSCc1[nH]cnc1C`, the melting point was in the range of 148 to 151 °C. To `O=C(Cn1c(-c2cccc(Cl)c2)nc2cccnc21)Nc1ccccc1` belongs 211 to 212 °C; to `CCCCc1nc2c(N)nc3ccccc3c2n1CCCCNC(=O)Nc1ccccc1`, 185 to 187 °C.

Values taken from a melting point compilation (Tetko et al.; mined from patent text by program, amines drawn as free bases though some values may be those of a salt).
